From patent US6906057B1, “Methods for modulating FXR receptor activity” (Allergan, Inc., priority 1999, dated 2005)
Positions count from the first letter of the chain named.

Tests used:
FXR-RXRm heterodimer = target: T1, FXR-RXRm heterodimer (Rattus norvegicus, UniProt Q62735); assay: EcRE-TK-Luc transactivation in CV-1 cells cotransfected with FXR and RXRm; format: cell-based; conditions: for FXR transactivating activity: Example 3, FIG. 3, FXR-RXRm, 100 nM unless otherwise indicated, AGN 10 10 μM; for transactivation activity, cells cotransfected with FXR and RXRm: Example 5, FIG. 6
T1 construct: Full-length recombinant rat FXR and human RXR (or RXRm) cloned into the cloning site of plasmid pCMX; expressed in transfected cells; host or cells: CV-1 cells
T1 sequence (Q62735 1-469): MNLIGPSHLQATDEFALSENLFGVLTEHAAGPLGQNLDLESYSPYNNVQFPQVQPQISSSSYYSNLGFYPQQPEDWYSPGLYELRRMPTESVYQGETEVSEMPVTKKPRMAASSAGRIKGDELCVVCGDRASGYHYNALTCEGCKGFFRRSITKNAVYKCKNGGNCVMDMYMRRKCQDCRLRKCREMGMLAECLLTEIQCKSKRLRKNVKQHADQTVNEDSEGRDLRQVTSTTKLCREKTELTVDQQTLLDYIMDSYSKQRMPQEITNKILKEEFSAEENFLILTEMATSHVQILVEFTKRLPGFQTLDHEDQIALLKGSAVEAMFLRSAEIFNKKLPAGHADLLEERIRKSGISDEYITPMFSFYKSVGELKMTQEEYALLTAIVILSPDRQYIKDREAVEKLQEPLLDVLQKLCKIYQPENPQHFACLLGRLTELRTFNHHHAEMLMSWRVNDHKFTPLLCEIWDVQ
T1 sequence (P19793 1-462 D322P partner): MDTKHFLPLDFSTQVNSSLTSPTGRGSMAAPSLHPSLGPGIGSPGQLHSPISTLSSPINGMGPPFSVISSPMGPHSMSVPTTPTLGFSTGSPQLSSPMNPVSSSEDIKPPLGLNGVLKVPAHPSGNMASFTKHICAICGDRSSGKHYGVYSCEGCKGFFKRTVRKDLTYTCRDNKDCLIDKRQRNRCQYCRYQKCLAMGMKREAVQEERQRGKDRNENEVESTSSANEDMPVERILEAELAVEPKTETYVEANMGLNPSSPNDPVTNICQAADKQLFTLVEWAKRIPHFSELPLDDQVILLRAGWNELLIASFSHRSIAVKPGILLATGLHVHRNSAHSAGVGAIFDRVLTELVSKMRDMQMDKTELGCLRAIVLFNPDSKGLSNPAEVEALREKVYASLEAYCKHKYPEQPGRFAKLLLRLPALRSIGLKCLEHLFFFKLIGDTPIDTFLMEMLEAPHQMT
Excerpt: Because FXR is known to bind to its response element as a heterodimer with RXR, and because the heterodimer can be activated by ligands to RXR, a mutant RXRα protein (RXRm; also referred to as D322P in the Figures) was constructed containing a single point mutation (Asp322 to Pro) in the ligand binding domain of RXR. The use of FXR-RXRm heterodimers, permits unambiguous identification of modulators of FXR activity amongst test compounds.
(§1) Full-length recombinant rat FXR and human RXR (or RXRm) cloned into the cloning site of plasmid pCMX were cotransfected into CV-1 cells using the transient transfection method substantially as described above. Additionally, reporter plasmids were cotransfected with the expression plasmids as described above.
(§2) Luciferase reporter plasmids TK-Luc (described in Heyman et al., Cell 68:397 (1992), hereby incorporated by reference herein) were constructed by placing the firefly luciferase cDNA coding sequence in frame immediately downstream from the herpes virus thymidine kinase promoter (located at nucleotide residues −105 to +51) of the thymidine kinase nucleotide sequence). Six repeats of the EcRE response element, to which the DNA binding domain (DBD) of FXR binds, was also included upstream of the reporter gene. Further details are provided above.
(§3) AGN 10 has the structure: [drawing 3]
(§4) The cells were then lysed as described above, and luciferase activity was measured as an indication of the extent of heterodimer-induced FXR transactivation activity as described above Results are shown in FIG. 2.
CV-1 cells were cotransfected with mammalian expression vectors encoding full length FXR and RXRm, as well as with the luciferase reporter plasmid used in the last experiment. […] All compounds were dissolved in DMSO, except glycochenodeoxycholic acid, taurochenodeoxycholic acid, taurodeoxycholic acid and taurocholic acid, which were dissolved in phosphate buffered saline (PBS). Following exposure to the compounds, the cells were washed, lysed, and the luciferase activity measured as indicated above.
(§5) These compounds were assayed for FXR modulating activity using the transactivation assay described above. All compounds were dissolved in DMSO. As above, the reporter plasmid contained 6 copies of the ecdysone response element (EcRE) placed along with the herpes virus thymidine kinase promoter upstream of the firefly luciferase gene. The reporter plasmid was transfected into CV-1 cells, either a) alone, b) with an expression plasmid encoding full length FXR, c) with an expression plasmid encoding full length RXRα, d) with two expression plasmids encoding full length FXR and RXRα respectively, and e) with two expression plasmids encoding full length FXR and RXRm, respectively. Plasmid constructions, transfection, incubation with test compounds, and luciferase activity assays were performed as described in Example 1.

FXR-RXRα heterodimer = target: T2, FXR-RXRα heterodimer (UniProt P19793+Q62735); assay: EcRE-TK-Luc transactivation in CV-1 cells cotransfected with FXR and RXR; format: cell-based, rat; conditions: for luciferase activity response, cells cotransfected with FXR and RXRα: Example 5, FIG. 6; for FXR activity as stated for panel compounds: Example 5 panel description, JH III 50 μM
T2 construct: Full-length recombinant rat FXR and human RXR (or RXRm) cloned into the cloning site of plasmid pCMX; expressed in transfected cells; host or cells: CV-1 cells
T2 sequence (Q62735 1-469): T1 sequence (Q62735 1-469)
T2 sequence (P19793 1-462): T1 sequence (P19793 1-462 D322P partner) with P322D
Excerpt: as §1, §2, §3, §4
Transient cotransfection of full length rat FXR, human RXR and the luciferase reporter plasmid was performed as above. A set of cotransfectant CV-1 cells was incubated in 1, 2, 10, and 20 μM AGN 10. Separate sets of cotransformants were given 1, 10, 20, 100, and 200 μM of either CDCA, DCA or LCA. All compounds were dissolved in DMSO. All transformant cells were permitted to incubate for approximately 44 hours with the indicated compound, then the amount of transactivation activity was measured using the luciferase assay, as indicated above.
as §5

FXR-RXRα complex = target: T3, FXR-RXRα complex (UniProt P19793+Q62735); conditions: Forman et al., Cell 81:687-693 (1995); cited from earlier work
T3 sequence (Q62735 1-469): T1 sequence (Q62735 1-469)
T3 sequence (P19793 1-462): T1 sequence (P19793 1-462 D322P partner) with P322D

FXR or RXR alone = conditions: Forman et al., Cell 81:687-693 (1995); cited from earlier work
[1] = Example 2, FIG. 2, ~44 hours, AGN 10 5-10 μM, LG 268 100 nM, bovine bile extract

**Q.** With `C[C@H](CCC(=O)O)[C@H]1CC[C@H]2[C@@H]3C(=O)C[C@@H]4CC(=O)CC[C@]4(C)[C@H]3CC[C@]12C` [3-7-diketolithocholic acid, 3,7-diketolithocholic acid] as the compound, how does the FXR transactivating activity (FXR-RXRm heterodimer; ~44 hours) read?
**A.** Its FXR transactivating activity is “measurable FXR transactivating activity”.

**Q.** For `C[C@H](CCC(=O)O)[C@H]1CC[C@H]2[C@@H]3C(=O)C[C@@H]4C[C@H](O)CC[C@]4(C)[C@H]3CC[C@]12C` [7-ketolithocholic acid], which FXR transactivating activity (FXR-RXRm heterodimer; ~44 hours) is on record?
**A.** The FXR transactivating activity was “measurable FXR transactivating activity”.

**Q.** For `CC1(C)CCC(C)(C)c2cc(/C(=C/c3ccc(C(=O)C(=O)O)cc3)[Si](C)(C)C)ccc21` [AGN 10], which “FXR-mediated transactivation (luciferase activity), FXR-RXRm cotransfected cells” value (FXR-RXRm heterodimer; [1]) is on record?
**A.** The value was “almost as much activity”.

**Q.** What about the FXR transactivating activity (FXR-RXRm heterodimer; ~44 hours) of the same compound?
**A.** The FXR transactivating activity was “measurable FXR transactivating activity”.

**Q.** And the “transactivation activity, cells cotransfected with FXR and RXRm” value (FXR-RXRm heterodimer)?
**A.** The value was “significant levels of transctivation activity”.

**Q.** What about the “FXR ligand classification from the data” value (FXR-RXRm heterodimer; Example 5, conclusion) of the same compound?
**A.** The value was “FXR agonists”.

**Q.** And the “FXR-mediated transactivation (luciferase activity), FXR-RXR cotransfected cells” value (FXR-RXRα heterodimer; [1])?
**A.** The value was “almost as much activity”.

**Q.** And the “concentration at which FXR agonist activity is at a maximum” value (FXR-RXRα heterodimer; Example 4, FIG. 4, rat FXR, human RXR, ~44 hours)?
**A.** Its value is 10 µM.

**Q.** What about the “luciferase activity response, cells cotransfected with FXR and RXRα” value (FXR-RXRα heterodimer) of the same compound?
**A.** Its value is “highest activity response”.

**Q.** With `CC1(C)CCC(C)(C)c2cc(C(=O)Nc3ccc(C(=O)O)cc3)ccc21` [Am 580] as the compound, how does the “FXR activity as stated for panel compounds” value (“FXR activity as stated” for short) (FXR-RXRα heterodimer) read?
**A.** The value was “does not have FXR activity”.

**Q.** For `C/C(=C\c1ccc(C(=O)O)cc1)c1ccc2c(c1)C(C)(C)CCC2(C)C` [TTNPB], which “transactivation activity, cells cotransfected with FXR and RXRm” value (FXR-RXRm heterodimer) is on record?
**A.** The value was “significant levels of transctivation activity”.

**Q.** What about the “luciferase activity response, cells cotransfected with FXR and RXRα” value (FXR-RXRα heterodimer) of the same compound?
**A.** The value was “highest activity response”.

**Q.** And the “FXR activity as stated” value (FXR-RXRα heterodimer)?
**A.** Its value is “has FXR activity”.

**Q.** Which “activation of the FXR-RXR complex” value (FXR-RXRα complex) does the source give for `CC(C)CCC[C@@H](C)[C@H]1CC[C@H]2[C@@H]3CC=C4C[C@@H](O)CC[C@]4(C)[C@H]3CC[C@]12C` [cholesterol] here?
**A.** Its value is “did not activate”.

**Q.** With `CC(C)=CCCC(C)=CCCC(C)=CC=O` [farnesal] as the compound, how does the “activation of the FXR-RXR complex” value (FXR-RXRα complex) read?
**A.** The value was “somewhat less strongly”.

**Q.** With `CC(C)=CCCC(C)=CCCC(C)=CC(=O)O` [farnesoic acid] as the compound, how does the “activation of the FXR-RXR complex” value (FXR-RXRα complex) read?
**A.** The value was “somewhat less strongly”.

**Q.** With `CC(C)=CCC/C(C)=C/CO` [geraniol] as the compound, how does the “activation of the FXR-RXR complex” value (FXR-RXRα complex) read?
**A.** Its value is “did not activate”.

**Q.** Which “activation of the FXR-RXR complex” value (FXR-RXRα complex) does the source give for `CC(C)=CCC/C(C)=C/CC/C(C)=C/CC/C(C)=C/CO` [geranylgeraniol] here?
**A.** Its value is “somewhat less strongly”.

**Q.** For `CC(C)=CCC/C(C)=C/CC/C(C)=C/CC/C=C(\C)CC/C=C(\C)CCC=C(C)C` [squalene], which “activation of the FXR-RXR complex” value (FXR-RXRα complex) is on record?
**A.** The value was “did not activate”.

**Q.** With juvenile hormone III as the compound, how does the “activation of the FXR-RXR complex” value (FXR-RXRα complex) read?
**A.** The value was “activated”.

**Q.** And the “FXR activity as stated” value (FXR-RXRα heterodimer)?
**A.** Its value is “an FXR agonist”.

**Q.** What about the “activation of FXR or RXR alone” value (FXR or RXR alone) of the same compound?
**A.** Its value is “does not activate”.
